Measurements taken from PubChem BioAssay (NCI).
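Where inhibition never reached the appropriate level, the endpoint shown equals the highest concentration tested. Otherwise, values were interpolated linearly from a five-concentration, 48-hour dose response in 96-well plates. Abbreviation: GI50, concentration required for 50% inhibition of growth. The concentration for full growth arrest is given as TGI.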

What was measured:
Assay in all cases: DTP human tumour cell line panel, 48 h
[1] = test system: 786-0 renal
[2] = test system: A498 renal
[3] = test system: A549 NSCLC
[4] = test system: ACHN renal
[5] = test system: BT-549 breast
[6] = test system: CAKI-1 renal
[7] = test system: CCRF-CEM leukemia
[8] = test system: COLO 205 colon
[9] = test system: DU-145 prostate
[10] = test system: EKVX NSCLC
[11] = test system: HCC-2998 colon
[12] = test system: HCT-116 colon
[13] = test system: HCT-15 colon
[14] = test system: HL-60(TB) leukemia
[15] = test system: HOP-62 NSCLC
[16] = test system: HOP-92 NSCLC
[17] = test system: HS 578T breast
[18] = test system: HT29 colon
[19] = test system: IGROV1 ovarian
[20] = test system: K-562 leukemia
[21] = test system: KM12 colon
[22] = test system: LOX IMVI melanoma
[23] = test system: M14 melanoma
[24] = test system: MALME-3M melanoma
[25] = test system: MCF7 breast
[26] = test system: MDA-MB-231 breast
[27] = test system: MDA-MB-435
[28] = test system: MDA-MB-468 breast
[29] = test system: MOLT-4 leukemia
[30] = test system: NCI-H226 lung
[31] = test system: NCI-H23 lung
[32] = test system: NCI-H460 lung
[33] = test system: NCI-H522 lung
[34] = test system: NCI/ADR-RES ovarian
[35] = test system: OVCAR-3 ovarian
[36] = test system: OVCAR-4 ovarian
[37] = test system: OVCAR-5 ovarian
[38] = test system: OVCAR-8 ovarian
[39] = test system: PC-3 prostate
[40] = test system: RPMI-8226 leukemia
[41] = test system: RXF 393 renal
[42] = test system: SF-268 CNS
[43] = test system: SF-295 CNS
[44] = test system: SF-539 CNS
[45] = test system: SK-MEL-2 melanoma
[46] = test system: SK-MEL-28 melanoma
[47] = test system: SK-MEL-5 melanoma
[48] = test system: SK-OV-3 ovarian
[49] = test system: SN12C renal
[50] = test system: SNB-19 CNS
[51] = test system: SNB-75 CNS
[52] = test system: SR leukemia
[53] = test system: SW-620 colon
[54] = test system: T-47D breast
[55] = test system: TK-10 renal
[56] = test system: U251 CNS
[57] = test system: UACC-257 melanoma
[58] = test system: UACC-62 melanoma
[59] = test system: UO-31 renal

## O=C(N=Nc1c(O)[nH]c2ccc(Br)cc12)c1ccc2nc(-c3ccc(Cl)cc3)[nH]c2c1
[1]
  GI50: 29.6 µM
  TGI: > 38 µM
[2]
  GI50: > 38 µM
  TGI: > 38 µM
[3]
  GI50: > 38 µM
  TGI: > 38 µM
[4]
  GI50: > 38 µM
  TGI: > 38 µM
[5]
  GI50: > 38 µM
  TGI: > 38 µM
[6]
  GI50: > 38 µM
  TGI: > 38 µM
[7]
  GI50: 8.77 µM
  TGI: > 38 µM
[8]
  GI50: 26.2 µM
  TGI: > 38 µM
[9]
  GI50: 29.6 µM
  TGI: > 38 µM
[10]
  GI50: > 38 µM
  TGI: > 38 µM
[11]
  GI50: 32.6 µM
  TGI: > 38 µM
[12]
  GI50: 15.2 µM
  TGI: > 38 µM
[13]
  GI50: > 38 µM
  TGI: > 38 µM
[14]
  GI50: > 38 µM
  TGI: > 38 µM
[15]
  GI50: > 38 µM
  TGI: > 38 µM
[16]
  GI50: > 38 µM
  TGI: > 38 µM
[17]
  GI50: > 38 µM
  TGI: > 38 µM
[18]
  GI50: 15.2 µM
  TGI: > 38 µM
[19]
  GI50: > 38 µM
  TGI: > 38 µM
[20]
  GI50: 16.8 µM
  TGI: > 38 µM
[21]
  GI50: > 38 µM
  TGI: > 38 µM
[22]
  GI50: 11.3 µM
  TGI: > 38 µM
[23]
  GI50: > 38 µM
  TGI: > 38 µM
[24]
  GI50: > 38 µM
  TGI: > 38 µM
[25]
  GI50: 8.14 µM
  TGI: > 38 µM
[26]
  GI50: > 38 µM
  TGI: > 38 µM
[27]
  GI50: 29.6 µM
  TGI: > 38 µM
[28]
  GI50: 8.03 µM
  TGI: 37.9 µM
[29]
  GI50: 11.1 µM
  TGI: > 38 µM
[30]
  GI50: > 38 µM
  TGI: > 38 µM
[31]
  GI50: 34 µM
  TGI: > 38 µM
[32]
  GI50: 21.7 µM
  TGI: > 38 µM
[33]
  GI50: > 38 µM
  TGI: > 38 µM
[34]
  GI50: > 38 µM
  TGI: > 38 µM
[35]
  GI50: > 38 µM
  TGI: > 38 µM
[36]
  GI50: 12 µM
  TGI: > 38 µM
[37]
  GI50: > 38 µM
  TGI: > 38 µM
[38]
  GI50: 29.7 µM
  TGI: > 38 µM
[39]
  GI50: > 38 µM
  TGI: > 38 µM
[40]
  GI50: > 38 µM
  TGI: > 38 µM
[41]
  GI50: > 38 µM
  TGI: > 38 µM
[42]
  GI50: 10.8 µM
  TGI: > 38 µM
[43]
  GI50: > 38 µM
  TGI: > 38 µM
[44]
  GI50: > 38 µM
  TGI: > 38 µM
[45]
  GI50: > 38 µM
  TGI: > 38 µM
[46]
  GI50: > 38 µM
  TGI: > 38 µM
[47]
  GI50: > 38 µM
  TGI: > 38 µM
[48]
  GI50: > 38 µM
  TGI: > 38 µM
[49]
  GI50: > 38 µM
  TGI: > 38 µM
[50]
  GI50: 17.1 µM
  TGI: > 38 µM
[51]
  GI50: 8.44 µM
  TGI: > 38 µM
[52]
  GI50: > 38 µM
  TGI: > 38 µM
[53]
  GI50: 14.5 µM
  TGI: > 38 µM
[54]
  GI50: 11.8 µM
  TGI: > 38 µM
[55]
  GI50: > 38 µM
  TGI: > 38 µM
[56]
  GI50: 19.9 µM
  TGI: > 38 µM
[57]
  GI50: > 38 µM
  TGI: > 38 µM
[58]
  GI50: > 38 µM
  TGI: > 38 µM
[59]
  GI50: > 38 µM
  TGI: > 38 µM
